The record followed here is the OPERA property sets (Mansouri et al. 2018).

As for `CC1(C)CCC(c2ccccc2)(N2CCCCC2)CC1`, the lipophilicity (logP) stood at 6.39.

As for `CCOc1cc(Cc2cnc(N)nc2N)ccc1OC`, the lipophilicity (logP) stood at 1.2.

Take `c1cc2cccc3c4cccc5cccc(c(c1)c23)c54`: the lipophilicity (logP) came out at 6.25.

With `Nc1c([N+](=O)[O-])ccc2ncccc12`, the log partition coefficient (logP) was found to be 1.61.

As for `CCCCCCCCCCCCCC(=O)O`, the log partition coefficient (logP) is 6.11.

Turning to `O=C1C[N+]([O-])=C(c2ccccc2)c2cc(Cl)ccc2N1`, the log partition coefficient (logP) turned out to be 1.49.

With `CCCCCC=CCC=CCCCCCCCC(=O)O`, the logP is 7.05.

`CCCNC(=O)COc1ccc(OCCNCC(O)COc2ccccc2)cc1` (centres undefined): the log partition coefficient (logP) is 2.4.

Consider `c1ccc(-c2cn[nH]n2)cc1`, for which the log partition coefficient (logP) came out at 1.91.

For `O=C(c1ccc(-c2ccccc2)cc1)c1ccc2n1CCC2C(=O)O` (centres undefined), the logP turned out to be 4.27.

`COc1cc(CCN)cc(OC)c1OCc1ccccc1` yielded a logP of 2.4.

As to `Clc1ccc(-c2cccc(Cl)c2)cc1`, the logP stood at 5.15.

`CCCCC/C=C\C/C=C\C/C=C\C/C=C\CCCC(=O)O` displayed a logP of 6.98.

In turn, `Cc1cnc([N+](=O)[O-])n1CCO` registered a logP of 0.18.

In turn, `CCc1ccc(C2C(=O)c3ccccc3C2=O)cc1` showed a logP of 3.92.

Compound `Fc1cccc(N=C2NCCN2)c1Cl` displayed a logP of 1.52.

Regarding `CCOC(=O)CNC(=O)CNC(=O)CNC(=O)CCCCSc1ncnc2nc[nH]c12`, the logP amounted to 0.21.

With `Cc1ccc(N2Cn3c(nc4ccccc4c3=O)C2C)cc1` (centres undefined), the logP came to 2.16.

`C#CCC(O)(c1cccnc1)C1CCCCC1` (centres undefined) had a logP of 2.09.

`NS(=O)(=O)c1nc2c(Cl)cc(Cl)cc2s1` registered a log partition coefficient (logP) of 2.6.

The compound `COC(=O)c1ccc(N)cc1` gave a log partition coefficient (logP) of 1.37.

Compound `Nc1ncnc2c1ncn2C1C=CC(CO)O1` (centres undefined) came in with a lipophilicity (logP) of -0.5.

For `O=C1c2ccccc2C(=O)C1c1ccc(Br)cc1`, the logP was 3.76.

The compound `CCC1OC(=O)C(C)C(OC2CC(C)(OC)C(OC(C)=O)C(C)O2)C(C)C(OC2OC(C)CC(N(C)C)C2O)C(C)(O)CC(C)C(=O)C(C)C(O)C1C` (centres undefined) had a lipophilicity (logP) of 3.23.

`CS(=O)CCn1ccnc1[N+](=O)[O-]` (centres undefined) returned a logP of -1.22.

Take `CN(C)c1nc(N(C)C)nc(N(C)O)n1`: the logP stood at 1.61.

The compound `OCc1ccc(C(O)(Cn2ccnc2)c2ccc(-c3ccncc3)cc2)cc1` (centres undefined) gave a logP of 2.4.

In turn, `C[C@H]1O[C@@H](O[C@H]2[C@@H](O)C[C@H](O[C@H]3[C@@H](O)C[C@H](O[C@H]4CC[C@@]5(C)[C@H](CC[C@@H]6[C@@H]5CC[C@]5(C)[C@@H](C7=CC(=O)OC7)CC[C@]65O)C4)O[C@@H]3C)O[C@@H]2C)C[C@H](O)[C@@H]1O` yielded a logP of 1.85.

With `CCCCCCCOC1OC(CO)C(O)C(O)C1O` (centres undefined), the logP is 0.73.

`CCCOc1cc(Cc2cnc(N)nc2N)ccc1OC` returned a logP of 1.88.

`CCCCCc1ccc(CC(=O)O)cc1` yielded a lipophilicity (logP) of 3.75.

In turn, `CNC(=O)NS(=O)(=O)c1ccc(C)cc1` registered a lipophilicity (logP) of 0.95.

As to `CCOCCNCC(O)COc1ccc(-c2ncc(-c3cccs3)[nH]2)cc1` (centres undefined), the log partition coefficient (logP) was 2.25.

In turn, `COCc1cnc(-c2ccc(OCC(O)CNCCc3ccc(OC)c(OC)c3)cc2)[nH]1` (centres undefined) displayed a logP of 1.71.

`COC(=O)N(C)SN(C)C(=O)ON=C(C)SC` gave a logP of 1.4.

The compound `CCN(CC)C(C)CC(=O)Nc1c(C)cccc1C` (centres undefined) registered a logP of 2.63.

In the case of `CCN(CC)CCOC(=O)/C=C/c1ccccc1`, the logP amounted to 3.61.

On to `COc1ccc(NC(=O)CN2CCCCC2)cc1`, for which the logP is 2.52.

`CCCN(C(C)=O)C(C)C` showed a logP of 1.48.

With `CN1CC=C(c2cccs2)CC1`, the logP turned out to be 2.51.

`CC(C(=O)O)c1ccc(N2Cc3ccccc3C2=O)cc1` (centres undefined) yielded a logP of 2.77.

Take `COC1CC2(C)C(O)C(F)CC2C2CCc3cc(O)ccc3C12` (centres undefined): the lipophilicity (logP) was 2.35.

Consider `C#CC1(O)CCC2C3CCc4cc(O)ccc4C3C(CC)CC21C` (centres undefined), for which the logP is 4.28.

For the compound `CCCCCC(CCC)C(=O)O` (centres undefined), the log partition coefficient (logP) was 3.2.

`CC(C)(C)c1ccc(CC(=O)O)cc1` showed a logP of 2.98.

In the case of `Cc1cccc(C)c1NC(=O)CCN`, the logP stood at 0.62.

Consider `Cc1ccc(S(=O)(=O)NC(=O)NN2CCCCCC2)cc1`, for which the lipophilicity (logP) came out at 2.69.

The compound `Cc1cnc2n(c1=O)C(C)CCC2` (centres undefined) registered a lipophilicity (logP) of 0.82.

`O=C(CBr)c1ccccc1` displayed a logP of 2.19.

The compound `CCC(=O)OC(C(=O)NC12CC3CC(CC(C3)C1)C2)c1ccccc1` (centres undefined) registered a lipophilicity (logP) of 3.72.

For the compound `Cc1ccc(N(C)C)cc1`, the lipophilicity (logP) came to 2.81.

The compound `CCCC(O)C(=O)O` (centres undefined) registered a log partition coefficient (logP) of 0.45.

In the case of `c1ccc(C2CCNCC2)cc1`, the log partition coefficient (logP) is 2.39.

Compound `Cc1ccc(N(CCO)CCO)cc1` had a logP of 1.09.

`CCN1CC(C(O)C(CC2CCCCC2)NC(=O)C(Cc2cnc[nH]2)NC(=O)C(Cc2ccc(OC)cc2)NC(=O)N(C)CC(O)CO)OC1=O` (centres undefined) displayed a logP of 1.42.

In turn, `CC1OC(OC2C(O)CC(OC3CCC4(C)C(CCC5C4CCC4(C)C(C6=CC(=O)OC6)CCC54O)C3)OC2C)CC(O)C1O` (centres undefined) displayed a logP of 2.15.

In turn, `C=C1CCC2C(C1)c1c(OCc3ccc(-c4ccccc4)cc3)cc(CCCCC)cc1OC2(C)C` (centres undefined) came in with a logP of 11.3.

In turn, `COc1cc(Cc2cnc(N)nc2N)c(I)c(OC)c1OC` showed a logP of 1.79.

In turn, `C=C(C)C(=O)OCC(O)COc1ccccc1` (centres undefined) yielded a logP of 2.27.

`CCC1(CC)C(=O)NC(=O)N=C1OC(C)C` came in with a lipophilicity (logP) of 1.86.

In turn, `CCN(CC)CCCN(C(=O)Cc1ccccc1)c1c(C)cccc1C` gave a lipophilicity (logP) of 4.94.

Compound `CCN(CC)CCCCCC(=O)Nc1c(C)cccc1C` registered a logP of 2.95.

For `CCOC(=O)Cn1nc2ccccc2n1`, the logP was found to be 1.85.

`c1ccc2c(c1)Cc1c-2ccc2ccccc12` gave a logP of 5.4.

As for `O=C(COc1ccc(OCCNCC(O)COc2ccccc2)cc1)N1CCCCC1` (centres undefined), the logP was determined as 2.6.

Take `CCCCCCc1ccc(CC(=O)O)cc1`: the log partition coefficient (logP) came to 4.25.

For the compound `CCOC(=O)C(CC(C)C)NC(=O)CNC(=O)CNC(=O)CCCCSc1ncnc2nc[nH]c12` (centres undefined), the logP came to 1.07.

Consider `C[C@@H]1Cc2c(Cl)cc(C(=O)N[C@@H](Cc3ccccc3)C(=O)O)c(O)c2C(=O)O1`, for which the lipophilicity (logP) worked out at 4.74.

On to `O=c1[nH]c(-c2ccccc2)nc2nn[nH]c12`, for which the log partition coefficient (logP) stood at 1.27.

Regarding `CC(=O)c1ccc(C(O)(Cn2ccnc2)c2ccc(-c3ccncc3)cc2)cc1` (centres undefined), the logP was 2.41.

For `CCC(C(=O)OCc1ccccc1)C(COC(=O)c1cccc(Cl)c1)Cc1cncn1C` (centres undefined), the log partition coefficient (logP) is 5.08.

`O=C(O)c1ccc(Cl)cc1Nc1ccc(I)cc1` came in with a lipophilicity (logP) of 5.37.

Turning to `Cc1ccc(CCN)cc1`, the logP worked out at 1.83.

On to `CCOc1ccc(NC(=O)CN2CCCCC2)cc1`, for which the logP worked out at 2.82.

`CC(=O)c1ccc(S(=O)(=O)NC(=O)NC2CCCCC2)cc1` registered a logP of 2.44.

In turn, `COC1CC(OC2CCC3(C)C(CCC4C3CCC3(C)C(C5=CC(=O)OC5)C(O)CC43O)C2)OC(C)C1O` (centres undefined) gave a logP of 0.59.

Take `CCOc1cccc(NC(=O)CN2CCCCC2)c1`: the lipophilicity (logP) was determined as 3.17.

Regarding `c1ccc(-c2ncc3ccccc3n2)cc1`, the log partition coefficient (logP) is 3.42.

Turning to `COc1ccc(CCNCC(O)COc2ccc(-c3nc(C(C)=O)c(C)[nH]3)cc2)cc1OC` (centres undefined), the log partition coefficient (logP) worked out at 2.14.

Compound `CCCCCc1cc(OC)c2c(c1)OC(C)(C)C1CC=C(C)CC21` (centres undefined) came in with a log partition coefficient (logP) of 8.06.

Turning to `CNC(=O)COc1ccc(OCC(O)CNC(C)C)cc1` (centres undefined), the lipophilicity (logP) was 0.56.

`CN(C)CCCCN(Cc1ccc(C(C)(C)C)cc1)c1ccccc1` displayed a log partition coefficient (logP) of 5.53.

`CCOC(=O)OCCC(SC(=O)OCC)=C(C)N(C=O)CC1=C(C(=O)OCOC(=O)C(C)(C)C)N2C(=O)C(NC(=O)C(=NOC)c3csc(N)n3)C2SC1` (centres undefined) registered a lipophilicity (logP) of 3.34.

`CN(C)CCC(c1ccccc1)c1ccc(C(C)(C)C)cc1` (centres undefined) came in with a logP of 5.1.

Compound `O=C1C(N2CCN(CCO)CC2)=C(N2CC2)C(=O)C(N2CCN(CCO)CC2)=C1N1CC1` yielded a lipophilicity (logP) of -0.77.

The compound `CCNC(=O)NS(=O)(=O)c1ccc(C)cc1` gave a logP of 1.14.

In turn, `Cc1cccc(C)c1N(CCCN1CCCCC1)C(=O)Cc1ccccc1` displayed a logP of 5.28.

In turn, `CCOC(=O)C(C(=O)OC(C)C)=C1SCCS1` had a logP of 2.9.

For `COC(C)(OC)c1ccc(C(O)(Cn2ccnc2)c2ccc(-c3ccncc3)cc2)cc1` (centres undefined), the logP is 3.45.

As to `CC1=C(C(=O)Nc2ccccc2)S(=O)CCO1` (centres undefined), the logP turned out to be 0.64.

In turn, `OCc1cc(Cl)ccc1O` yielded a logP of 1.44.

`O=C1NC(=O)C(c2ccccc2)C(=O)N1`: the log partition coefficient (logP) is -0.17.

Regarding `Cn1c([N+](=O)[O-])cnc1C=Cc1ccncn1`, the logP came out at 0.85.

In turn, `O=Cc1cccc(Cl)c1` gave a lipophilicity (logP) of 2.26.

`CCCC(=O)c1ccccc1`: the lipophilicity (logP) came out at 2.77.

With `O=NN1CC=CCC1`, the log partition coefficient (logP) turned out to be 1.18.

In turn, `CC1CCCC(c2ccccc2)(N2CCCCC2)C1` (centres undefined) displayed a log partition coefficient (logP) of 5.86.

In turn, `CC1CCC2C(C)C(OC(=O)Oc3ccccc3)OC3OC4(C)CCC1C32OO4` (centres undefined) had a logP of 4.41.

For `CC(C)C(Nc1ccccc1)C(=O)OCc1ccccc1` (centres undefined), the logP amounted to 4.41.

Consider `O=[N+]([O-])c1cc(F)ccc1F`, for which the logP worked out at 1.86.

Compound `CCC(C(=O)OCc1ccccc1)C(CO)Cc1cncn1C` (centres undefined) had a log partition coefficient (logP) of 1.97.

The compound `Cc1ccc(Cl)c(N=C2NCCN2)c1` yielded a log partition coefficient (logP) of 1.83.

`CCCCCCCCC(=O)O` gave a logP of 3.42.

Consider `O=C(O)C=Cc1ccc2c(c1)OCO2`, for which the lipophilicity (logP) was 2.59.

Take `Cc1ccc2c(c1)C(c1ccccc1)=NCC(=O)N2`: the logP was 2.62.

`CCN1CC(C(O)C(CC2CCCCC2)NC(=O)C(Cc2cnc[nH]2)NC(=O)C(CC(=O)N(C)CCOC)Cc2ccccc2)OC1=O` (centres undefined): the lipophilicity (logP) amounted to 2.45.

In the case of `Cc1cc(C)c(O)c(C)c1`, the logP came to 2.73.

On to `NS(=O)(=O)c1ccc(Cl)c(Cl)c1`, for which the logP is 1.44.

`CC/C=C\C/C=C\C/C=C\CCCCCCCC(=O)O` returned a logP of 6.46.

The compound `COc1cc(Br)c(Cc2cnc(N)nc2N)cc1OC` yielded a logP of 1.64.

In turn, `Brc1cc2ccccc2nn1` gave a logP of 1.72.

On to `O=C1Nc2ccccc2C1c1ccccc1` (centres undefined), for which the lipophilicity (logP) came to 2.59.

`COc1cc(S(C)=O)ccc1-c1nc2ncccc2[nH]1` (centres undefined) showed a logP of 1.18.

As to `CNC(=O)c1cc(Br)cc(C)c1O`, the log partition coefficient (logP) stood at 3.51.

What is called logP is the decadic logarithm of the partition coefficient of the neutral form, usually between octanol and water.
